Laboratory results: patent US9944643B2, “Factor XIa inhibitors” (MERCK SHARP & DOHME CORP., priority 2014, dated 2018)

Biological target: purified human Factor XIa (Homo sapiens (Human), UniProt P03951)
Test: Factor XIa Assay
Assay type: biochemical
Procedure: The effectiveness a of compound of the present invention as an inhibitor of Coagulation Factor XIa can be determined using a relevant purified serine protease, and an appropriate synthetic substrate. The rate of hydrolysis of the chromogenic or fluorogenic substrate by the relevant serine protease was measured both in the absence and presence of compounds of the present invention. Assays were conducted at room temperature or at 37° C. […] A decrease in the rate of fluorescence change in the presence of inhibitor is indicative of enzyme inhibition. Such methods are known to one skilled in the art. The results of this assay are expressed as the inhibitory constant, Ki.
Factor XIa determinations were made in 50 mM HEPES buffer at pH 7.4 containing 150 mM NaCl, 5 mM CaCl2, and 0.1% PEG 8000 (polyethylene glycol; J T Baker or Fisher Scientific). Determinations were made using purified human Factor XIa at a final concentration of 40 pM (Sekisui Diagnostics) and the synthetic substrate, Z-Gly-Pro-Arg-AFC, TFA salt (Sigma #C0980) at a concentration of 100 μM.
Activity assays were performed by diluting a stock solution of substrate at least tenfold to a final concentration ≤0.1 Km into a solution containing enzyme or enzyme equilibrated with inhibitor. Times required to achieve equilibration between enzyme and inhibitor were determined in control experiments. Initial velocities of product formation in the absence (Vo) or presence of inhibitor (Vi) were measured. Assuming competitive inhibition, and that unity is negligible compared Km/[S], [I]/e, and [I]/e (where [S], [I], and e respectively represent the total concentrations, of substrate, inhibitor and enzyme), the equilibrium constant (Ki) for dissociation of the inhibitor from the enzyme can be obtained from the dependence of Vo/Vi on [I] shown in the following equation. Vo/Vi=1+[I]/Ki

purified human Factor XIa, sequence (P03951 whole entry, looked up): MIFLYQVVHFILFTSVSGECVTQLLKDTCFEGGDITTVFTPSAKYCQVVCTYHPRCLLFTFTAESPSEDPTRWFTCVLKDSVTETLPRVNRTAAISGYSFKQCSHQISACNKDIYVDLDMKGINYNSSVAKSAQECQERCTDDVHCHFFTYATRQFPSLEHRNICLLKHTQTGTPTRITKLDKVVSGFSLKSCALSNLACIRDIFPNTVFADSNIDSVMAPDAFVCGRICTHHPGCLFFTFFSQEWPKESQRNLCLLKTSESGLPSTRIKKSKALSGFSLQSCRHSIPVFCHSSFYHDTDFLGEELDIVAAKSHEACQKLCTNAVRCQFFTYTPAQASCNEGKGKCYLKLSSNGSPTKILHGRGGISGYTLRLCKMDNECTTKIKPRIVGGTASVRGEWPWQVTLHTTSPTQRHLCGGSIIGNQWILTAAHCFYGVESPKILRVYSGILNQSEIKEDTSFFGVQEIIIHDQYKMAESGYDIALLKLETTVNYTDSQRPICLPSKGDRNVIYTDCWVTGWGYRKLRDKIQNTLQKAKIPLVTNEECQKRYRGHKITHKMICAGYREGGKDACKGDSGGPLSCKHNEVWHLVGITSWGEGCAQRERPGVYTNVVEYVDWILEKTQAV
purified human Factor XIa, sequence (P03951 whole entry partner, looked up): as the sequence (P03951 whole entry, looked up) above

COC(=O)Nc1ccc2c(c1)N[C@@H](C(=O)O)CCCC[C@H](NC(=O)c1ccc(CN)c(C3CC3)c1)c1nc-2c[nH]1 [Example 3]
Ki: 100 pM

CC(C)COC(=O)Nc1ccc2c(c1)NC(=O)[C@@H](C)CCC[C@H](NC(=O)c1ccc(CN)c(C3CC3)c1)c1cc-2ccn1 [Example 6]
Ki: 200 pM

C[C@H]1CCC[C@H](NC(=O)c2ccc(CN)c(C3CC3)c2)c2cc(ccn2)-c2ccc(NC(=O)OC3CCCC3)cc2NC1=O [Example 7]
Ki: 300 pM

COC(=O)Nc1ccc2c(c1)NC(=O)CCCC[C@H](NC(=O)c1ccc(CN)c(C3CC3)c1)c1nc-2c(Cl)[nH]1 [Example 5]
Ki: 50 pM

COCCOC(=O)Nc1ccc2c(c1)NC(=O)[C@@H](C)CCC[C@H](NC(=O)c1ccc(CN)c(C3CC3)c1)c1cc-2ccn1 [Example 8]
Ki: 100 pM

COC(=O)Nc1ccc2c(c1)NC(=O)[C@@H](C)CCC[C@H](NC(=O)c1ccc(CN)c(C3CC3)c1)c1cc-2ccn1 [Example 4]
Ki: 30 pM

COC(=O)Nc1ccc2c(c1)NC(=O)CCCC[C@H](NC(=O)c1cnc(CN)c(C3CC3)c1)c1nc-2c[nH]1 [Example 2]
Ki: 1100 pM

COC(=O)Nc1ccc2c(c1)NC(=O)CCCC[C@H](NC(=O)c1ccc(CN)c(C3CC3)c1)c1nc-2c[nH]1 [Example 1, Methyl [(7S)-7-({[4-(aminomethyl)-3-cyclopropylphenyl]carbonyl}amino)-2-oxo-1,2,3,4,5,6,7,9-octahydro-11,8-(azeno)-1,9-benzodiazacyclotridecin-14-yl]carbamate]
Ki: 100 pM
